Experimental data: ChEMBL document CHEMBL5107972 (RSC Med Chem, 2022)
Converted amounts (≈) assume the structure as drawn.

Experiments:
Format in all cases: functional
[1] = system: Mycobacterium tuberculosis; test: Antitubercular activity against clinical isolate isoniazid-resistant Mycobacterium tuberculosis ATCC 35822 assessed as inhibition of bacterial growth incubated for 7 days by Presto blue resazurin microtiter plate assay; conditions: ATCC 35822, 168 h, time 7 day
[2] = system: Mycobacterium tuberculosis; test: Antitubercular activity against clinical isolate streptomycin-resistant Mycobacterium tuberculosis ATCC 35820 assessed as inhibition of bacterial growth incubated for 7 days by Presto blue resazurin microtiter plate assay; conditions: ATCC 35820, 168 h, time 7 day
[3] = system: Mycobacterium tuberculosis; test: Antitubercular activity against clinical isolate rifampicin-resistant Mycobacterium tuberculosis ATCC 35838 assessed as inhibition of bacterial growth incubated for 7 days by Presto blue resazurin microtiter plate assay; conditions: ATCC 35838, 168 h, time 7 day
[4] = system: Mycobacterium tuberculosis; test: Antitubercular activity against clinical isolate ethambutol-resistant Mycobacterium tuberculosis ATCC 35837 assessed as inhibition of bacterial growth incubated for 7 days by Presto blue resazurin microtiter plate assay; conditions: ATCC 35837, 168 h, time 7 day

Row | Compound | MIC [1] [µg/mL] | MIC [2] [µg/mL] | MIC [3] [µg/mL] | MIC [4] [µg/mL]
1 | CC[C@@H](CO)NCCN[C@@H](CC)CO [ETHAMBUTOL] | 4 (≈ 19.6 µM) | 2 (≈ 9.79 µM) | 2 (≈ 9.79 µM) | 32 (≈ 157 µM)
2 | NNC(=O)c1ccncc1 [ISONIAZID] | > 64 | 0.03 (≈ 0.219 µM) | 0.03 (≈ 0.219 µM) | 0.03 (≈ 0.219 µM)
3 | CO[C@H]1/C=C/O[C@@]2(C)Oc3c(C)c(O)c4c(O)c(c(/C=N/N5CCN(C)CC5)c(O)c4c3C2=O)NC(=O)/C(C)=C\C=C\[C@H](C)[C@H](O)[C@@H](C)[C@@H](O)[C@@H](C)[C@H](OC(C)=O)[C@@H]1C [RIFAMPIN] | 0.03 (≈ 0.0365 µM) | 0.03 (≈ 0.0365 µM) | 64 (≈ 77.8 µM) | 0.03 (≈ 0.0365 µM)
4 | CN[C@@H]1[C@H](O[C@H]2[C@H](O[C@H]3[C@H](O)[C@@H](O)[C@H](N=C(N)N)[C@@H](O)[C@@H]3N=C(N)N)O[C@@H](C)[C@]2(O)C=O)O[C@@H](CO)[C@H](O)[C@H]1O [STREPTOMYCIN] | 1 (≈ 1.72 µM) | > 64 | 1 (≈ 1.72 µM) | 1 (≈ 1.72 µM)
